Assay results published in patent US20130012472A1, “COMPOSITION AND METHODS OF INHIBITING GASTROINTESTINAL PATHOGEN INFECTION” (Boston College, priority 2011, published 2013).

Legend:
ETEC H10407 = assay: Bacteria invasion assay (adherence and invasion of ETEC to IECs); type: cell-based, Escherichia coli
Description: (§1) Intestinal epithelial cells (IECs) such as HCT8, T84, Caco2, H4, and FHs74 cells, were cultured in 24-well tissue culture plates (Corning life Sciences Inc, MA) at 5×10^4 cells/well in antibiotic free media for 48 hours. The IEC cells, with or without treatment of HMOS or TFiLNO, were incubated with a suspension of ETEC H10407 cells (10^5-10^9 cfu) for 1 h at 37° C. […] gentamicin was then added to the culture to kill any extracellular bacteria cells. Cell lysis was performed in 500 μl of 0.5% Triton X-100 (Sigma, Mo.) for 30 minutes at room temperature. The cell lysates were plated on difco agar plates (antibiotic free) at a proper dilution of 500. The total number of cell-associated bacteria was determined as the number of bacteria in IEC lysate immediately after infection. The number of invaded bacteria was determined as those detected in IEC cell lysate prepared from IECs treated with gentamycin for 1 hour after bacterial infection. The number of bacteria adhered to IEC cells was calculated as follows: (The total number of cell-associated bacteria)−(The number of invaded bacteria). All of the adhesion and invasion assays were performed in duplicate in at least three independent experiments.

IL-8 [1] = assay: ELISA of IL-8 secretion by ETEC-infected IECs; type: cell-based; conditions: for IL-8 secretion induced by ETEC invasion: ETEC-infected IECs with inhibitors, FIGS. 3D and 3E
Description: as §1
(§2) Levels of proinflammatory factors (IL-8, IL-6, TNF-α, and MCP-1) in the culture supernatants of the IECs were measured using ELISA kits from R&D following manufacturer's protocols.

ETEC [2] = assay: Wash-out experiments (IECs pre-incubated with TFiLNO, washed, then ETEC invasion); type: cell-based, Escherichia coli; conditions: IECs incubated 48 hours with 30 pg/mL TFiLNO, washed 6 times with PBS; FIG. 6C
Description: IECs were grown in 24-well tissue culture plates (Corning life Sciences Inc, MA) at 5×10^4 cells/well in an antibiotic free medium for 48 hours. The culture medium was then replaced with a fresh medium containing 30 pg/mL TFiLNO. The IECs were further incubated at 37° C. for 48 hours. Supernatants were discarded and cells were washed 6 times with PBS. The cells were then incubated in a fresh medium free of TFiLNO and contains ETEC (10^8). After 1 hour incubation, extracellular bacteria were killed by gentamycin. Invaded ETEC were measured as described previously.

ETEC [3] = assay: Bacteria killing assay; type: cell-based, Escherichia coli; conditions: TFiLNO 30 pg/ml; FIG. 6A
ETEC [4] = assay: Pre-incubation assay (ETEC pre-incubated with TFiLNO, then invasion of T84 cells); type: cell-based, Escherichia coli; conditions: ETEC pre-incubated 2 h with TFiLNO 30 pg/mL, then T84 cells 1 hour; FIG. 6B
Description: ETEC cells in mid-logarithmic growth phase were re-suspended in PBS (pH 7.2) at a concentration of 2×10^8 cells/ml. The suspension was mixed with an equal volume of PBS in the presence or absence of TFiLNO (30 pg/mL), and incubated in U-bottom 96-well plates at room temperature for 2 h with brief mixing every 15 min. At the end of the incubation, the ETEC cells were co-incubated with T84 cells for 1 hour at 37° C. After extracellular bacteria were killed by gentamycin, invaded ETEC were measured as described above.

IL-8 [5] = assay: LPS-stimulated IL-8 secretion by T84 cells in the absence of ETEC (ELISA); type: cell-based; conditions: TFiLNO 30 pg/ml, 1 h at 37° C., FIG. 7A
Description: as §2
To examine the effect of TFiLNO on IL-8 production, this oligosaccharide (30 pg/ml) was incubated with T84 cells in the absence of ETEC for 1 h at 37° C. IL-8 secretion to the culture medium was determined by ELISA. […] See also FIGS. 7B and 7C.

CD14 = CD14 expression on IECs (RT-PCR, FACS); type: cell-based, human; conditions: TFiLNO-treated IECs; FIGS. 7B and 7C
Description: IEC cells (e.g., T84 cells) were treated with HMOS (5 mg/mL) prepared as described above for 48 hours. Cells not treated by HMOS were used as a negative control. Total RNAs were purified from the IEC cells and RT-PCR was performed following routine methods to determine the expression levels of genes of interest, including those shown in FIG. 7B. GADPH was used as an internal control. The relative gene expression levels were determined by Delta CT Method. T84 cells treated with or without HMOS were incubated with PE-conjugated mouse anti-human CD14 Mabs. PE-conjugated isotype-matched (IgG1) antibodies were used as controls. Data respecting 20,000 live cells from each sample were collected and subjected to FACS analysis following routine procedures.

Compound	ETEC invasion of IEC cells (ETEC H10407; cytochalasin D, FIG. 3D)	IL-8 secretion induced by ETEC invasion (IL-8 [1])	inhibitory activity against ETEC invasion after washing off preincubated TFiLNO (ETEC [2])	killing of ETEC (ETEC [3])	invasion of ETEC after pre-incubation of ETEC with TFiLNO (ETEC [4])	IL-8 secretion stimulated by LPS (IL-8 [5])	adherence of ETEC to IEC cells (ETEC H10407; TFiLNO 30 pg/ml, FIG. 5A)	invasion of ETEC to IEC cells (ETEC H10407; TFiLNO 30 pg/ml, FIG. 5B)	secretion of IL-8 by the treated IEC cells (IL-8 [1]; TFiLNO 30 pg/ml, ETEC-infected IEC cells, over time, FIG. 5C)	CD14 expression on IECs (CD14)
C=C1[C@@H](C)[C@H]2[C@H](Cc3ccccc3)NC(=O)[C@]23[C@H](OC(C)=O)/C=C/[C@@](C)(O)C(=O)[C@@H](C)C/C=C/[C@H]3[C@@H]1O [cytochalasin D, reference compound]	Inhibition of invasion	inhibited	–	–	–	–	–	–	–	–
Trifucosyl(1,2-1,2-1,3)-lacto-N-octoase [TFiLNO]	–	–	did not affect	did not kill	could not be further inhibited	directly inhibited	inhibit	inhibit	significantly reduced	suppression
polymycin-B	–	reduced	–	–	–	–	–	–	–	–
